Each block holds one compound with its values, some of them ahead of it.
Legend:
[1] = biological target: Voltage-gated inwardly rectifying potassium channel KCNH2 (Homo sapiens, UniProt Q12809); assay: Inhibition of [35S]MK-499 binding to hERG expressed in HEK293 cells; format: toxicity, cell-based
[2] = biological target: T1, Proteinase-activated receptor 1 (Homo sapiens, UniProt P25116); assay: Antagonist activity at human PAR-1 expressed in HEK293 cells assessed as reduction in TRAP induced calcium signal at 3 uM by FLIPR analysis; format: functional, cell-based
T1 sequence (P25116 whole entry): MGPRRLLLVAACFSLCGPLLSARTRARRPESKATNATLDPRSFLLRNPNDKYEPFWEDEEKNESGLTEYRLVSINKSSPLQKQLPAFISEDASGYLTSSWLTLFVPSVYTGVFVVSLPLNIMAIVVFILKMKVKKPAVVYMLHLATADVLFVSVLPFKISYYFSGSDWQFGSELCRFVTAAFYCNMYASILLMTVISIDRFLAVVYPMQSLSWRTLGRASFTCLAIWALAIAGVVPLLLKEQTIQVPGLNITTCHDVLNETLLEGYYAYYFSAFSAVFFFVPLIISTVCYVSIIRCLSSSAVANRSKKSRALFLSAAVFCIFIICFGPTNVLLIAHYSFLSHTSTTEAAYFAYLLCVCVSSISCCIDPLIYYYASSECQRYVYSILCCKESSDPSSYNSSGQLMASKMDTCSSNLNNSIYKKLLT

[3] = Ex vivo inhibition of PAR-1 in cynomolgus monkey whole blood assessed as inhibition of TRAP-induced platelet aggregation at 0.3 mg/kg, po measured after 24 hrs; format: functional; conditions: Macaca fascicularis
[4] = Plasma protein binding in dog assessed as unbound fraction; format: ADME, cell-free, Canis lupus familiaris
[5] = Volume of distribution in cynomolgus monkey at 0.3 mg/kg, iv; format: ADME, organism-based, Macaca fascicularis; conditions: in vivo
[6] = Clearance in dog hepatocyte measured per 10^6 cells; format: ADME, cell-based, Canis lupus familiaris; conditions: hepatocytes
[7] = Clearance in rat hepatocyte measured per 10^6 cells; format: ADME, cell-based; conditions: hepatocytes
[8] = Dose normalized AUC in Sprague-Dawley rat at 3 mg/kg, po; format: ADME, organism-based; conditions: in vivo
[9] = Toxicity in rat assessed as non-toxic AUC for tissue toxicity at 30 mg/kg; format: organism-based; conditions: in vivo
[10] = Volume of distribution in dog at 0.3 mg/kg, iv; format: ADME, organism-based, Canis lupus familiaris; conditions: in vivo
[11] = AUC in Sprague-Dawley rat at 30 mg/kg, po; format: ADME, organism-based; parameters: dose 30 mg/kg; conditions: in vivo
[12] = AUC in Sprague-Dawley rat at 50 mg/kg, po; format: ADME, organism-based; parameters: dose 50 mg/kg; conditions: in vivo
[13] = Cmax in Sprague-Dawley rat at 30 mg/kg, po; format: ADME, organism-based; parameters: route oral, dose 30 mg/kg; conditions: in vivo
[14] = Dose normalized Cmax in Sprague-Dawley rat at 30 mg/kg, po; format: ADME, organism-based; conditions: in vivo
[15] = Dose normalized AUC in Sprague-Dawley rat at 50 mg/kg, po; format: ADME, organism-based; conditions: in vivo
[16] = Volume of distribution in rat at 0.3 mg/kg, iv; format: ADME, organism-based; conditions: in vivo
[17] = Clearance in mouse hepatocyte measured per 10^6 cells; format: ADME, cell-based; conditions: hepatocytes
[18] = Ex vivo inhibition of PAR-1 in cynomolgus monkey whole blood assessed as inhibition of TRAP-induced platelet aggregation at 1 mg/kg, po measured after 24 hrs; format: functional; conditions: Macaca fascicularis
[19] = Toxicity in rat assessed as non-toxic AUC for liver bioactivation at 30 mg/kg; format: organism-based; conditions: in vivo
[20] = Dose normalized Cmax in Sprague-Dawley rat at 3 mg/kg, po; format: ADME, organism-based; conditions: in vivo
[21] = AUC in Sprague-Dawley rat at 10 mg/kg, po; format: ADME, organism-based; parameters: dose 10 mg/kg; conditions: in vivo
[22] = Unbound clearance in cynomolgus monkey at 0.3 mg/kg, iv; format: ADME, organism-based, Macaca fascicularis; conditions: in vivo
[23] = Clearance in human hepatocyte measured per 10^6 cells; format: ADME, cell-based; conditions: hepatocytes
[24] = MRT in cynomolgus monkey at 1 mg/kg, iv; format: ADME, organism-based, Macaca fascicularis; conditions: in vivo
[25] = Cmax in Sprague-Dawley rat at 10 mg/kg, po; format: ADME, organism-based; parameters: route oral, dose 10 mg/kg; conditions: in vivo
[26] = Dose normalized Cmax in Sprague-Dawley rat at 50 mg/kg, po; format: ADME, organism-based; conditions: in vivo
[27] = Oral bioavailability in cynomolgus monkey at 1 mg/kg,; format: ADME, organism-based, Macaca fascicularis; conditions: in vivo
[28] = AUC in Sprague-Dawley rat at 3 mg/kg, po; format: ADME, organism-based; parameters: dose 3 mg/kg; conditions: in vivo
[29] = Unbound volume of distribution in rat at 3 mg/kg, iv; format: ADME, organism-based; conditions: in vivo
[30] = Dose normalized Cmax in Sprague-Dawley rat at 10 mg/kg, po; format: ADME, organism-based; conditions: in vivo
[31] = Clearance in dog at 0.3 mg/kg, iv; format: ADME, organism-based, Canis lupus familiaris; conditions: in vivo
[32] = Dose normalized AUC in Sprague-Dawley rat at 10 mg/kg, po; format: ADME, organism-based; conditions: in vivo
[33] = Unbound volume of distribution in dog at 0.3 mg/kg, iv; format: ADME, organism-based, Canis lupus familiaris; conditions: in vivo
[34] = Cmax in Sprague-Dawley rat at 50 mg/kg, po; format: ADME, organism-based; parameters: route oral, dose 50 mg/kg; conditions: in vivo
[35] = MRT in rat at 1 mg/kg, iv; format: ADME, organism-based; conditions: in vivo
[36] = Dose normalized AUC in Sprague-Dawley rat at 30 mg/kg, po; format: ADME, organism-based; conditions: in vivo
[37] = Oral bioavailability in rat at 10 mg/kg; format: ADME, organism-based; conditions: in vivo
[38] = Unbound volume of distribution in cynomolgus monkey at 0.3 mg/kg, iv; format: ADME, organism-based, Macaca fascicularis; conditions: in vivo
[39] = MRT in rat at 3 mg/kg, iv; format: ADME, organism-based; conditions: in vivo
[40] = Clearance in rat at 3 mg/kg, iv; format: ADME, organism-based; conditions: in vivo
[41] = Unbound clearance in rat at 3 mg/kg, iv; format: ADME, organism-based; conditions: in vivo
[42] = Apparent permeability in MDCKII-LE cells; format: ADME, cell-based, Canis lupus familiaris; conditions: dog, MDCK
[43] = Clearance in cynomolgus monkey at 0.3 mg/kg, iv; format: ADME, organism-based, Macaca fascicularis; conditions: in vivo
[44] = Cmax in Sprague-Dawley rat at 3 mg/kg, po; format: ADME, organism-based; parameters: route oral, dose 3 mg/kg; conditions: in vivo
[45] = Plasma protein binding in rat assessed as unbound fraction; format: ADME, cell-free
[46] = Oral bioavailability in dog at 1 mg/kg; format: ADME, organism-based, Canis lupus familiaris; conditions: in vivo
[47] = Plasma protein binding in cynomolgus monkey assessed as unbound fraction; format: ADME, cell-free, Macaca fascicularis
[48] = MRT in dog at 0.3 mg/kg, iv; format: ADME, organism-based, Canis lupus familiaris; conditions: in vivo
[49] = MRT in rat at 0.5 mg/kg, iv; format: ADME, organism-based; conditions: in vivo
[50] = MRT in cynomolgus monkey at 0.3 mg/kg, iv; format: ADME, organism-based, Macaca fascicularis; conditions: in vivo
[51] = MRT in cynomolgus monkey at 0.3 mg/kg, po; format: ADME, organism-based, Macaca fascicularis; conditions: in vivo

Voltage-gated inwardly rectifying potassium channel KCNH2, sequence (Q12809 whole entry): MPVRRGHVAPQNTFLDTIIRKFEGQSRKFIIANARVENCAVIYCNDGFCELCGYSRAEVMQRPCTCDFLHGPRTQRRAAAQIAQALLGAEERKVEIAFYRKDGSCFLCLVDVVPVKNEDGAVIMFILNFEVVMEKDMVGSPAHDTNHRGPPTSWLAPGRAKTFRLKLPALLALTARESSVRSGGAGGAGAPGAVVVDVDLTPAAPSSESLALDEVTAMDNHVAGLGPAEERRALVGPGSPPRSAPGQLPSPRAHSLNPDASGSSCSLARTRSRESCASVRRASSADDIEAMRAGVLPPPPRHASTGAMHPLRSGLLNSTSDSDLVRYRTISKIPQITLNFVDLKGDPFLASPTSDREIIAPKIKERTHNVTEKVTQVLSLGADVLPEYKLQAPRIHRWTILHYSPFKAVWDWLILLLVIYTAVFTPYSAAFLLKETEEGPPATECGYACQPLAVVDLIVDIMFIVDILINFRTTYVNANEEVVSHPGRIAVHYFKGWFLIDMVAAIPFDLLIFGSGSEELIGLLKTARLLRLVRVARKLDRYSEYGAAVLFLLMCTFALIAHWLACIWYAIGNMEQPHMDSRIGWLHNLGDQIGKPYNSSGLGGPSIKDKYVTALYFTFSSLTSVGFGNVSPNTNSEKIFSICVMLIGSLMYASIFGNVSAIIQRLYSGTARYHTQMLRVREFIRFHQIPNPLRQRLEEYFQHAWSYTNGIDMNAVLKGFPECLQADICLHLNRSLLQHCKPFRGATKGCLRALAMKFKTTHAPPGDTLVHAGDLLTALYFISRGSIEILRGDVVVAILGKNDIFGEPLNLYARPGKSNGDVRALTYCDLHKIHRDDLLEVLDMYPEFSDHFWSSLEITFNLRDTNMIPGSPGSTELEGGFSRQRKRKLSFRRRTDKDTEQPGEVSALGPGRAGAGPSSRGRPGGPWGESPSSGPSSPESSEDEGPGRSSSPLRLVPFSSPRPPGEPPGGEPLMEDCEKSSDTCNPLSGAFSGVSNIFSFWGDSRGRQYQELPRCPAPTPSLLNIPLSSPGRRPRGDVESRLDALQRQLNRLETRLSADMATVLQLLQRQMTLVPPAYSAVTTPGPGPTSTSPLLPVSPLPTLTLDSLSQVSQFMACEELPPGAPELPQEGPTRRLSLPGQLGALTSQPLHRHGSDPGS

Structure (SMILES): C[C@@H]1[C@@H](C)[C@@H]2CNC[C@@]23C(=O)O[C@H](C)[C@H]3[C@H]1/C=C/c1ccc(-c2ccccc2C#N)cn1
IC50 [1]: 1300 nM
IC50 [2]: 14 nM

Structure (SMILES): C[C@H]1OC(=O)[C@@H]2CC3(NC(=O)NC3=O)[C@@H](C)[C@H](c3ccc(-c4cccc(F)c4)cn3)[C@H]12 (some centres undefined)
IC50 [2]: 178 nM

Structure (SMILES): C[C@H]1OC(=O)[C@]2(N)CC(F)(F)[C@@H](C)[C@H](/C=C/c3ccc(-c4ccccc4C#N)cn3)[C@H]12
inhibition in vivo at 0.3 mg/kg [3]: 100%
fraction unbound [4]: 0.15
Vd [5]: 2.5 L/kg
CLint [6]: 2 µL/min/1e6 cells
CLint [7]: 13 µL/min/1e6 cells
AUCt/dose [8]: 0.44 µM·h
AUC [9]: 44 µM·h
Vd [10]: 6.3 L/kg
AUC [11]: 97 µM·h
AUC [12]: 191 µM·h
Cmax [13]: 12 µM
Cmax/dose [14]: 0.4 µM
AUCt/dose [15]: 3.8 µM·h
Vd [16]: 3.6 L/kg
CLint [17]: 3.3 µL/min/1e6 cells
inhibition in vivo at 1 mg/kg [18]: 100%
AUC [19]: 44 µM·h
Cmax/dose [20]: 0.12 µM
AUC [21]: 12.1 µM·h
CL free [22]: 12 mL/min/kg
CLint [23]: 1.1 µL/min/1e6 cells
MRT [24]: 24 h
Cmax [25]: 5.6 µM
Cmax/dose [26]: 0.56 µM
IC50 [2]: 7 nM
bioavailability [27]: 37%
AUC [28]: 1.31 µM·h
Vdu [29]: 41 L/kg
Cmax/dose [30]: 0.56 µM
clearance [31]: 5.9 mL/min/kg
AUCt/dose [32]: 1.2 µM·h
Vdu [33]: 41 L/kg
Cmax [34]: 28 µM
MRT [35]: 1.4 h
AUCt/dose [36]: 3.2 µM·h
bioavailability [37]: 54%
Vdu [38]: 17 L/kg
MRT [39]: 1.9 h
clearance [40]: 31 mL/min/kg
CL free [41]: 352 mL/min/kg
Papp [42]: 38.3 ×10⁻⁶ cm/s
clearance [43]: 12 mL/min/kg
Cmax [44]: 0.36 µM
fraction unbound [45]: 0.09
bioavailability [46]: 100%
fraction unbound [47]: 0.15
MRT [48]: 18 h

Structure (SMILES): C[C@H]1OC(=O)[C@]2(O)CC(F)(F)[C@@H](C)[C@H](/C=C/c3ccc(-c4ccccc4C#N)cn3)[C@H]12
MRT [51]: > 20 h
MRT [35]: 20 h

Further lines, with some results ahead:

IC50 [2]: 4 nM
Structure (SMILES): CCOC(=O)N1C[C@H]2[C@H](C)[C@@H](C)[C@H](/C=C/c3ccc(-c4ccccc4C#N)cn3)[C@@H]3[C@@H](C)OC(=O)[C@@]32C1
IC50 [1]: 1600 nM

IC50 [2]: 5 nM
Structure (SMILES): C[C@H]1OC(=O)[C@@H]2CC(F)(F)[C@@H](C)[C@H](c3ccc(-c4cccc(F)c4)cn3)[C@H]12

MRT [49]: 2.7 h
MRT [50]: 38.4 h
IC50 [2]: 6 nM
Structure (SMILES): C[C@H]1NC(=O)[C@]2(N)CC(F)(F)[C@@H](C)[C@H](/C=C/c3ccc(-c4ccccc4C#N)cn3)[C@H]12
IC50 [1]: 33000 nM
